Test results taken from patent publication US8501754B2, “Quinazolinamide derivatives” (MERCK PATENT GmbH, priority 2007, dated 2013).
pIC50: −log10 of the molar value.

target: Recombinant human HSP90a (Homo sapiens, UniProt P07900); assay: radioligand filter binding test ([3H]17AAG competition) for HSP90 inhibition; conditions: competition with [3H]17AAG 0.08 μM, HSP90 1.5 μg/assay, 22° C., 30 min
Description: Test Method for the Measurement of HSP90 Inhibitors
The binding of geldanamycin or 17-allylamino-17-demethoxygeldanamycin (17AAG) to HSP90 and competitive inhibition thereof can be utilized in order to determine the inhibitory activity of the compounds according to the invention (Carreras et al. 2003, Chiosis et al. 2002).
In the specific case, a radioligand filter binding test is used. The radioligand used here is tritium-labelled 17-allylaminogeldanamycin, [3H]17AAG. This filter binding test allows a targeted search for inhibitors which interfere with the ATP binding site.
Recombinant human HSP90a (E. coli expressed, 95% purity);
[3H]17AAG (17-allylaminogeldanamycin, [allylamino-2,3-^3H. Specific activity: 1.11×10^12 Bq/mmol (Moravek, MT-1717);
HEPES filter buffer (50 mM HEPES, pH 7.0, 5 mM MgCl2, BSA 0.01%) Multiscreen FB (1 μm) filter plate (Millipore, MAFBNOB 50).
The 96-well microtitre filter plates are firstly irrigated and coated with 0.1% of polyethylenimine.
The test is carried out under the following conditions:
Reaction temperature 22° C.
Reaction time: 30 min., shaking at 800 rpm
50 mM HEPES HCl, pH 7.0, 5 mM MgCl2, 0.01% (w/v) of BSA
At the end of the reaction, the supernatant in the filter plate is removed by suction with the aid of a vacuum manifold (Multiscreen Separation System, Millipore), and the filter is washed twice.
The filter plates are then measured in a beta counter (Microbeta, Wallac) with scintillator (Microscint 20, Packard).
“% of control” is determined from the “counts per minutes” values, and the IC-50 value of a compound is calculated therefrom.

Row | pIC50 | Compound
1 | 6.00 to 8.00 | Nc1nc(C(=O)N2Cc3ccccc3C2)c2cc(NC3CCCCC3)ccc2n1 [Compound A949]
2 | < 5.00 | CCNC(=O)c1ccc2nc(N)nc(C(=O)N(CC)CC)c2c1 [Compound A140, 2-Amino-6-ethylcarbamoyl-4-diethylcarbamoylquinazoline]
3 | 6.00 to 8.00 | NC(=O)c1ccccc1-c1ccc2nc(N)nc(C(=O)N3Cc4ccccc4C3)c2c1 [Compound A310]
4 | 5.00 to 6.00 | Nc1nc(C(=O)Nc2ccccc2-c2ccccc2)c2ccccc2n1 [Compound A46]
5 | 5.00 to 6.00 | CN1CCN(c2ccc3nc(N)nc(C(=O)N4Cc5ccccc5C4)c3c2)CC1 [Compound A941]
6 | 6.00 to 8.00 | Nc1nc(C(=O)N2Cc3ccccc3C2)c2cc(C#CCO)ccc2n1 [Compound A964, 2-amino-6-(3-hydroxyprop-1-ynyl)-4-(1,3-dihydroisoindol-2-ylcarbonyl)quinazoline]
7 | 5.00 to 6.00 | Nc1nc(C(=O)Nc2cccc3cccnc23)c2ccccc2n1 [Compound A48]
8 | 6.00 to 8.00 | Nc1nc(C(=O)N2Cc3ccccc3C2)c2cc(-c3ccccc3OC(F)(F)F)ccc2n1 [Compound A240]
9 | 6.00 to 8.00 | Nc1nc(C(=O)N2Cc3ccccc3C2)c2cc(-c3ccccc3O)ccc2n1 [Compound A335, [2-amino-6-(2-hydroxyphenyl)quinazolin-4-yl]-(1,3-dihydroisoindol-2-yl)methanone]
10 | 5.00 to 6.00 | NCc1ccccc1-c1ccc2nc(N)nc(C(=O)N3Cc4ccccc4C3)c2c1 [Compound A936]
11 | 6.00 to 8.00 | Nc1nc(C(=O)N2Cc3ccccc3C2)c2cc(-c3ccccc3C(=O)N3CCNCC3)ccc2n1 [Compound A1007]
12 | 5.00 to 6.00 | Nc1nc(C(=O)N2Cc3ccccc3C2)c2cc(-c3cc4ccccc4o3)ccc2n1 [Compound A921, 2-Amino-6-(benzofuran-2-yl)-4-(1,3-dihydroisoindol-2-ylcarbonyl)quinazoline]
13 | < 5.00 | CN(C)C(=O)c1nc(N)nc2ccccc12 [Compound A5, 2-Amino-4-dimethylcarbamoylquinazoline]
14 | 6.00 to 8.00 | Nc1nc(C(=O)N2Cc3ccccc3C2)c2cc(-c3ccccc3CN3CCNCC3)ccc2n1 [Compound A971]
15 | 6.00 to 8.00 | Nc1nc(C(=O)N2Cc3ccccc3C2)c2cc(-c3ccccc3CNCCO)ccc2n1 [Compound A972]
16 | 6.00 to 8.00 | Nc1nc(C(=O)N2Cc3ccccc3C2)c2cc(-c3ccncc3)ccc2n1 [Compound A922, 2-Amino-6-(pyridin-4-yl)-4-(1,3-dihydroisoindol-2-ylcarbonyl)quinazoline]
17 | 6.00 to 8.00 | N#CCc1ccccc1-c1ccc2nc(N)nc(C(=O)N3Cc4ccccc4C3)c2c1 [Compound A344a]
18 | 6.00 to 8.00 | CCNCc1ccccc1-c1ccc2nc(N)nc(C(=O)N3Cc4ccccc4C3)c2c1 [Compound A978]
19 | 6.00 to 8.00 | Nc1nc(C(=O)N2Cc3ccccc3C2)c2cc(-c3ccc(O)cc3CO)ccc2n1 [Compound A1006]
20 | < 5.00 | CN(Cc1ccc(F)cc1)C(=O)c1nc(N)nc2ccccc12 [Compound A73, 2-Amino-4-[(4-fluorobenzyl)methylcarbamoyl]quinazoline]
21 | 6.00 to 8.00 | Nc1nc(C(=O)N2Cc3ccccc3C2)c2cc(N3CCN(C(=O)OCc4ccccc4)CC3)ccc2n1 [Compound A939]
22 | 5.00 to 6.00 | CCc1ccc2nc(N)nc(C(=O)N(CC)CC)c2c1 [Compound A98, 2-Amino-6-ethyl-4-diethylcarbamoylquinazoline]
23 | 6.00 to 8.00 | CN(C)CCNCc1ccccc1-c1ccc2nc(N)nc(C(=O)N3Cc4ccccc4C3)c2c1 [Compound A973]
24 | 5.00 to 6.00 | CCc1ccc2nc(N)nc(C(=O)N3Cc4ccc(O)cc4C3)c2c1 [Compound A95, 2-Amino-6-ethyl-4-(5-hydroxy-1,3-dihydroisoindol-2-ylcarbonyl)quinazoline]
25 | 5.00 to 6.00 | Nc1nc(C(=O)N2Cc3ccccc3C2)c2cc(NC3CCC(O)CC3)ccc2n1 (centres unmarked) [Compound A951]
26 | 6.00 to 8.00 | CN1CCN(Cc2cc(O)ccc2-c2ccc3nc(N)nc(C(=O)N4Cc5ccccc5C4)c3c2)CC1 [Compound A1002]
27 | 5.00 to 6.00 | Nc1nc(C(=O)N2Cc3ccccc3C2)c2cc(-c3ccccc3CNC3CCC(O)CC3)ccc2n1 (centres unmarked) [Compound A977]

Row | pIC50 | Compound
28 | 6.00 to 8.00 | CNCc1ccccc1-c1ccc2nc(N)nc(C(=O)N3Cc4ccccc4C3)c2c1 [Compound A933]
29 | < 5.00 | CCN(CC)C(=O)c1nc(N)nc2ccccc12 [Compound A7, 2-Amino-4-diethylcarbamoylquinazoline]
30 | 5.00 to 6.00 | Nc1nc(C(=O)N2Cc3ccccc3C2)c2cc(-c3ccncc3)ccc2n1 [Compound A923, 2-Amino-6-(pyridin-4-yl)-4-(1,3-dihydroisoindol-2-ylcarbonyl)quinazoline]
31 | < 5.00 | CNC(=O)c1nc(N)nc2ccccc12 [Compound A1, 2-amino-4-methylcarbamoylquinazoline]
32 | 6.00 to 8.00 | CCc1ccccc1-c1ccc2nc(N)nc(C(=O)N3Cc4ccccc4C3)c2c1 [Compound A924, 2-Amino-6-(2-ethylphenyl)-4-(1,3-dihydroisoindol-2-ylcarbonyl)quinazoline]
33 | 6.00 to 8.00 | CCN(CC)C(=O)c1cccc(-c2ccc3nc(N)nc(C(=O)N4Cc5ccccc5C4)c3c2)c1 [Compound A931]
34 | 6.00 to 8.00 | COCCNCc1ccccc1-c1ccc2nc(N)nc(C(=O)N3Cc4ccccc4C3)c2c1 [Compound A976]
35 | 5.00 to 6.00 | Nc1nc(C(=O)N2Cc3ccccc3C2)c2cc(NCc3ccccc3)ccc2n1 [Compound A950]
36 | 6.00 to 8.00 | Nc1nc(C(=O)N2Cc3ccccc3C2)c2cc(Oc3ccccc3)ccc2n1 [Compound A946]
37 | 6.00 to 8.00 | CN(C)Cc1ccccc1-c1ccc2nc(N)nc(C(=O)N3Cc4ccccc4C3)c2c1 [Compound A975]
38 | < 5.00 | C#CCCNC(=O)c1nc(N)nc2ccccc12 [Compound A19, 2-Amino-4-propargylmethylcarbamoylquinazoline]
39 | 6.00 to 8.00 | Nc1nc(C(=O)N2Cc3ccccc3C2)c2cc(-c3ccccc3S(=O)(=O)N3CCNCC3)ccc2n1 [Compound A981]
40 | 5.00 to 6.00 | Nc1nc(C(=O)N2Cc3ccccc3C2)c2cc(Br)ccc2n1 [Compound A125, 2-Amino-6-bromo-4-(1,3-dihydroisoindol-2-ylcarbonyl)quinazoline]
41 | 6.00 to 8.00 | CN(C)CCN(C)S(=O)(=O)c1ccccc1-c1ccc2nc(N)nc(C(=O)N3Cc4ccccc4C3)c2c1 [Compound A982]
42 | 6.00 to 8.00 | CCc1ccc2nc(N)nc(C(=O)N3Cc4ccc(Br)cc4C3)c2c1 [Compound A96, 2-Amino-6-ethyl-4-(5-bromo-1,3-dihydroisoindol-2-ylcarbonyl)quinazoline]
43 | 6.00 to 8.00 | Nc1nc(C(=O)N2Cc3ccccc3C2)c2cc(-c3ccccc3CN3CCOCC3)ccc2n1 [Compound A974]
44 | 5.00 to 6.00 | Nc1nc(C(=O)Nc2cccc3c2CCCC3)c2ccccc2n1 [Compound A50]
45 | 5.00 to 6.00 | 2-Amino-4-propylethylcarbamoylquinazoline [Compound A11]
46 | 6.00 to 8.00 | CCc1ccc2nc(N)nc(C(=O)N3Cc4ccccc4C3)c2c1 [Compound A97, 2-Amino-6-ethyl-4-(1,3-dihydroisoindol-2-ylcarbonyl)quinazoline]
47 | 6.00 to 8.00 | CN(C)CCOc1ccccc1-c1ccc2nc(N)nc(C(=O)N3Cc4ccccc4C3)c2c1 [Compound A986, {2-amino-6-[2-(2-dimethylaminoethoxy)phenyl]quinazolin-4-yl}-(1,3-dihydroisoindol-2-yl)methanone]
48 | 6.00 to 8.00 | Nc1nc(C(=O)N2Cc3ccccc3C2)c2cc(-c3ccccc3C=O)ccc2n1 [Compound A969, 2-[2-amino-4-(1,3-dihydroisoindole-2-carbonyl)quinazolin-6-yl]benzaldehyde]
49 | 6.00 to 8.00 | N#Cc1ccccc1-c1ccc2nc(N)nc(C(=O)N3Cc4ccccc4C3)c2c1 [Compound A328]
50 | < 5.00 | CN(C)CCCNc1ccc2nc(N)nc(C(=O)N3Cc4ccccc4C3)c2c1 [Compound A940]
51 | < 5.00 | COc1ccc(Cl)cc1CN(C)C(=O)c1nc(N)nc2ccccc12 [Compound A72, 2-Amino-4-[(3-chloro-6-methoxybenzyl)methylcarbamoyl]quinazoline]
52 | 6.00 to 8.00 | Nc1nc(C(=O)N2Cc3ccccc3C2)c2cc(-c3ccccc3C(F)(F)F)ccc2n1 [Compound A262]
53 | 5.00 to 6.00 | Nc1nc(C(=O)N2Cc3ccccc3C2)c2cc(-c3cccc(O)c3)ccc2n1 [Compound A925, 2-Amino-6-(3-hydroxyphenyl)-4-(1,3-dihydroisoindol-2-ylcarbonyl)quinazoline]

Row | Compound | pIC50
54 | CC(C)N(C)C(=O)c1nc(N)nc2ccccc12 [Compound A8, 2-Amino-4-isopropylmethylcarbamoylquinazoline] | < 5.00
55 | CCCN(C)C(=O)c1nc(N)nc2ccccc12 [Compound A10, 2-Amino-4-propylmethylcarbamoylquinazoline] | < 5.00
56 | CCN(C)C(=O)c1nc(N)nc2ccccc12 [Compound A6, 2-Amino-4-ethylmethylcarbamoylquinazoline] | < 5.00
